The text below walks through data of patent publication US20200354404A1, “PEPT[…], […] AND USES THEREOF” (priority 2019, published 2020).

Several values for one entry are separate records, joined by “and”; a condition that tells them apart may be missing. Equal entries are not always repeated. Where two headings read alike, the source gives them in different places. Where no end group is shown, it is not given here. Where only a bound is given, the exact number is not on record here.

Data set [1] can be described thus: Stability of endomorphin-2 in mouse serum. The format is in vitro ADME. To be noted: read-out: amount (AUC O.D.254) in mouse serum less than amount originally placed. From the text:
In addition, as the result of the rapid hydrolysis and enzymatic degradation, a number of peptides are not stable enough to be used in drug discovery, diagnosis, prevention and treatment of diseases.
A graph of stability of EM2 and K763 in mice serum is depicted in FIG. 11.

For data set [2] the following is noted: cited from earlier work.
Data set [3] is described as follows: in vitro. The conditions noted are these: mouse, mouse serum.
A further data set in a line: in vivo. To be noted: male, Sprague-Dawley, rat, 1 mg/kg; for AUC(0-t): AUClast; for AUC(0-t) / MRT last: iv 1 mg/kg; for MRT last: MRTlast.
Data set [4] is described as follows: Animal studies (protection). To be noted: in vivo.
For another data set, the target named is OPRM-1 receptor (Homo sapiens, UniProt P35372). Kind of data set: Binding to OPRM-1. To be noted: FIG. 10. From the text: FIG. 10 are graphs depicting binding of K763 and Endomorphin-2 binding to OPRM-1.
The binding is depicted in FIG. 10.

The next data set has as its system mice. Briefly: APAP-induced cytokines, liver enzymes and lethality in mice. The class given is in vivo.
The conditions of data set [5]: iv 1 mg/kg.
Data set [6] relates to HMGB1-induced TNF secretion. Briefly: HMGB1-induced TNF secretion. The class given is cell-based. The conditions noted are these: FIG. 7.
Another data set deals with IRTK (Homo sapiens, UniProt P06213). The conditions noted are these: Kato et al. 2009; cited from earlier work.
Data set [7] in a line: in vitro. To be noted: mouse, serum.
Description: Stability of Bradykinin amide and (1-9)-Aza-Bradykinin in serum was measured.

Chain of OPRM-1 receptor (P35372 whole entry): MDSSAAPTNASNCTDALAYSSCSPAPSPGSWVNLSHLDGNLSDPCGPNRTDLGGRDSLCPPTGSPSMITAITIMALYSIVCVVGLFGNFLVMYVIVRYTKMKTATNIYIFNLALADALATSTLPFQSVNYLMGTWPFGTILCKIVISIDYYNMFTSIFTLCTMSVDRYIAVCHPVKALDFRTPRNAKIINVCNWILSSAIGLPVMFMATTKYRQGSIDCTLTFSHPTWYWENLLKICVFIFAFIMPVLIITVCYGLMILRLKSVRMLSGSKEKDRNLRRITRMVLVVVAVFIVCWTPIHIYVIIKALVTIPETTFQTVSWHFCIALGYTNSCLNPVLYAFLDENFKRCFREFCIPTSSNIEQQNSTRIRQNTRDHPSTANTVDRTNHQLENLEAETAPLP
Chain of IRTK (P06213 28-1382): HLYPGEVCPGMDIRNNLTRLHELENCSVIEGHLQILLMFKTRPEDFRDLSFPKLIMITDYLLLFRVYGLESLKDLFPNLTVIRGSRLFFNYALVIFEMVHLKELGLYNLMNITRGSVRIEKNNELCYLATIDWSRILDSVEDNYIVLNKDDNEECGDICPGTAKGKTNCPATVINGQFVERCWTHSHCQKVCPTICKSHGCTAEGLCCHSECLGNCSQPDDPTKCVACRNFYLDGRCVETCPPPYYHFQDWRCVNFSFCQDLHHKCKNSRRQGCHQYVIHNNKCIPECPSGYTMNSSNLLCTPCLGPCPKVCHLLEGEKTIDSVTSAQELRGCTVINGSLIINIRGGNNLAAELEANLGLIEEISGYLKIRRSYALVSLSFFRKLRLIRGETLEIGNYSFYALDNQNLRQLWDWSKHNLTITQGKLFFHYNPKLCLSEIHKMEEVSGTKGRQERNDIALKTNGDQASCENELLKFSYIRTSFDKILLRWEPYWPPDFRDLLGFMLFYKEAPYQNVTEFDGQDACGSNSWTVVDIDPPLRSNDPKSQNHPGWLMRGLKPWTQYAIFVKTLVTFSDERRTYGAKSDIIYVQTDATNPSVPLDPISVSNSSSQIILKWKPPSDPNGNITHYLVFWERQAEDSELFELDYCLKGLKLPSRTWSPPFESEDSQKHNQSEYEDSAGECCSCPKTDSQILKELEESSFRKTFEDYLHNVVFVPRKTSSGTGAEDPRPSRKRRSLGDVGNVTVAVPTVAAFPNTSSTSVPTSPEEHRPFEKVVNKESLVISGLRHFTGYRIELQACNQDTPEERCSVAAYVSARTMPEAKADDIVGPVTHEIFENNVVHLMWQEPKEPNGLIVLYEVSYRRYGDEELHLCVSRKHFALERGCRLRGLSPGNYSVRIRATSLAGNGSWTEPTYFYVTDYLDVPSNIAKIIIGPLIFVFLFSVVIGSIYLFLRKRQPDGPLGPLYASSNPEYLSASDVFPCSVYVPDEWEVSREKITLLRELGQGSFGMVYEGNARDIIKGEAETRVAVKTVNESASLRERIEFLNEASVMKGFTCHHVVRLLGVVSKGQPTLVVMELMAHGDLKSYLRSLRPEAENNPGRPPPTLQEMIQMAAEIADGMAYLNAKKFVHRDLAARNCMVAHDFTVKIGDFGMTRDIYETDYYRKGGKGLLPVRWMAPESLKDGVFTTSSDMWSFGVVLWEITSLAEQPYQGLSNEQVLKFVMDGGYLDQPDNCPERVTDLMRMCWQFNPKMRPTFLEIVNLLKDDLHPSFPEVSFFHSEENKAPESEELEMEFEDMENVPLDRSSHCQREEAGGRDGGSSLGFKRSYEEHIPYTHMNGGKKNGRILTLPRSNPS

As for `NC(=O)C(Cc1ccccc1)NC(=O)C(Cc1ccccc1)NC(=O)[C@@H]1CCCN1C(=O)C(N)Cc1ccc(O)cc1` (stereo partly drawn) [Endomorphin-2], in data set [1], the metabolised at 2 h was approximately 95%.

Regarding `N[C@@H](Cc1ccccc1)C(=O)N[C@@H](CO)C(=O)N[C@@H](CO)C(=O)N[C@@H](CCC(=O)O)C(=O)O` [FSSE, reference compound], in data set [2] (in vivo), the in vivo half-life entry is “less than 5 minutes”. The half-life is 60 min in “in vitro [3]” and less than 1 min in the data set “in vivo”. Besides, the “protection in animal studies (in words)” value in data set [4] was “protective”.

As for `NC(=O)N(Cc1ccccc1)NC(=O)N(Cc1ccccc1)NC(=O)[C@@H]1CCCN1C(=O)N(N)Cc1ccc(O)cc1` [K763], at OPRM-1 receptor, the “affinity for OPRM-1 compared with Endomorphin-2 (in words)” value is “stronger affinity than Endomorphin-2” and the “binding to OPRM-1 receptor (in words)” value was “shown to bind”.

As for `NC(=O)N(CCC(=O)O)NC(=O)[C@H](CO)NC(=O)[C@H](CO)NC(=O)N(N)Cc1ccccc1` [K883], in the data set with mice (FIG. 8), the “APAP-induced pro-inflammatory cytokines (in words)” value is “reduction” and the “APAP-induced serum liver enzymes (in words)” value is listed as “reduction”. Further, the “APAP-induced lethality in mice (in words)” value in the data set with mice (FIG. 9) was “reduced”. Further, the Plasma concentration in data set [5] (0.50 hr, individual rats, 1 mg/kg) is 3020 ng/mL and 2500 ng/mL and 3220 ng/mL. Further, the Plasma concentration in data set [5] (1.0 hr, individual rats, 1 mg/kg) is 814 ng/mL and 1160 ng/mL and 1300 ng/mL. Also, the Plasma concentration in data set [5] (2.0 hr, individual rats, 1 mg/kg) is 133 ng/mL and 130 ng/mL and 142 ng/mL. Further, the Plasma concentration in data set [5] (4.0 hr, individual rats, 1 mg/kg) is 17.0 ng/mL and 15.1 ng/mL and 17.1 ng/mL. Besides, the Plasma concentration in data set [5] (6.0 hr, individual rats, 1 mg/kg) was 6.49 ng/mL and 4.04 ng/mL and 4.77 ng/mL. For the same compound, the Plasma concentration in data set [5] (8.0 hr, individual rats, 1 mg/kg) was 2.0 ng/mL and 0.871 ng/mL and 1.68 ng/mL. The compound also displayed a tmax in [5] (individual rats) of 0 h. The AUClast in data set [5] (individual rats, 1 mg/kg) is 3807 ng·h/mL and 3749 ng·h/mL. The “tmax, Mean” value in data set [5] (mean of 3 rats) came to 0 h. Also, the half-life in “in vitro [3]” is more than 900 min. For the same compound, the “HMGB1-induced TNF secretion (in words)” value in data set [6] is on record as “inhibits”. The half-life in “in vivo” (in vivo half-life) is more than 69 min. For the same compound, in “in vivo” (iv), the level at 0.5 h was 2910 ng/mL, the level at 1 h was 1090 ng/mL, the level at 2 h is 135 ng/mL and the level at 4 h worked out at 16.6 ng/mL. In addition, in the data set “in vivo” (iv), the level at 6 h is 5.1 ng/mL and the level at 8 h turned out to be 1.52 ng/mL. Also, in the data set “in vivo” (iv, Mean, mean of 3 rats), the AUC(0-t) was determined as 3780 ng·h/mL and the MRT last was found to be 33.4 min. Moreover, in the data set “in vivo” (iv, individual rats), the AUC(0-t) was found to be 3770 ng·h/mL and the MRT last came to 32.1 min. The “protection in animal studies (in words)” value in data set [4] was “protective”.

Regarding Ac-Asp1-Ile2-Tyr3-Glu4-Thr5-NH2, the “IRTK phosphorylation (in words)” value at IRTK is listed as “inhibit”.

As for RPPGFSPFR [bradykinin], the metabolised at 3 h in the data set “in vitro [7]” is approximately 97%. Further, in [2] (background statement), the in vivo half-life entry is on record as “less than 1 minutes”.

The half-life is the time in which the quantity being followed falls by half. As a reminder, the AUC(0-t) is the area under the concentration-time curve up to a stated or last time point. Read a low AUC(0-t) as less exposure. What is called MRT last is a mean duration of stay, worked out from the concentration-time curve.
